From PubChem BioAssay AID256 (DTP/NCI, 2004)
Several values for one entry are separate records, joined by “and”; a condition that tells them apart may be missing. Identical values can stand only once. Inconclusive results and toxic doses are left out. The calls were made as follows: active = survival T/C of 150% or more; inactive = T/C below 125% in these data.

Tested on: CD2F1 mice, L1210 leukemia ip, survival T/C
Assay: NCI In Vivo Anticancer Drug Screen. Data for tumor model L1210 Leukemia (intraperitoneal) in CD2F1 (CDF1) mice
Conditions: endpoint: mean survival time, higher = longer survival
Procedure, shortened: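 Vehicle-treated tumor-bearing mice served as controls (C) for compound-treated mice (T). Reported figure is T divided by C.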

[1] = dose: 50.0 mg/kg/injection, schedule: Q01DX009 (ip), vehicle: saline
[2] = dose: 100.0 mg/kg/injection, schedule: Q01DX009 (ip), vehicle: saline
[3] = dose: 100.0 mg/kg/injection, schedule: Q01DX009 (ip), vehicle: saline with Tween-80
[4] = dose: 200.0 mg/kg/injection, schedule: Q01DX009 (ip), vehicle: saline with Tween-80
[5] = dose: 400.0 mg/kg/injection, schedule: Q01DX009 (ip), vehicle: saline with Tween-80
[6] = dose: 100.0 mg/kg/injection, schedule: Q01DX001 (ip), vehicle: saline
[7] = dose: 200.0 mg/kg/injection, schedule: Q01DX001 (ip), vehicle: saline
[8] = dose: 400.0 mg/kg/injection, schedule: Q01DX001 (ip), vehicle: saline
[9] = dose: 100.0 mg/kg/injection, schedule: Q04DX003 (ip), vehicle: saline with Tween-80
[10] = dose: 200.0 mg/kg/injection, schedule: Q04DX003 (ip), vehicle: saline with Tween-80
[11] = dose: 400.0 mg/kg/injection, schedule: Q04DX003 (ip), vehicle: saline with Tween-80
[12] = dose: 100.0 mg/kg/injection, schedule: Q01DX001 (ip), vehicle: saline with Tween-80
[13] = dose: 200.0 mg/kg/injection, schedule: Q01DX001 (ip), vehicle: saline with Tween-80
[14] = dose: 400.0 mg/kg/injection, schedule: Q01DX001 (ip), vehicle: saline with Tween-80
[15] = dose: 25.0 mg/kg/injection, schedule: Q01DX009 (ip), vehicle: other
[16] = dose: 50.0 mg/kg/injection, schedule: Q01DX009 (ip), vehicle: other
[17] = dose: 100.0 mg/kg/injection, schedule: Q01DX009 (ip), vehicle: other
[18] = dose: 200.0 mg/kg/injection, schedule: Q04DX003 (ip), vehicle: saline
[19] = dose: 25.0 mg/kg/injection, schedule: Q04DX002 (ip), vehicle: saline with Tween-80

Measured: T/C

CNc1nc2c(N)ncnc2n1C1OC(CO)C(O)C1O (centres undefined)
inactive: dose: 3.12 mg/kg/injection, schedule: Q01DX009 (ip), vehicle: saline 95 % of control | dose: 6.25 mg/kg/injection, schedule: Q01DX009 (ip), vehicle: saline 106 % of control | dose: 12.5 mg/kg/injection, schedule: Q01DX009 (ip), vehicle: saline 106 % of control and 107 % of control | dose: 12.5 mg/kg/injection, schedule: Q04DX002 (ip), vehicle: saline 98 % of control | dose: 25.0 mg/kg/injection, schedule: Q01DX005 (ip), vehicle: distilled water + Tween-80 96 % of control | dose: 25.0 mg/kg/injection, schedule: Q01DX009 (ip), vehicle: saline 115 % of control and 101 % of control | dose: 25.0 mg/kg/injection, schedule: Q04DX002 (ip), vehicle: saline 102 % of control | dose: 50.0 mg/kg/injection, schedule: Q01DX005 (ip), vehicle: distilled water + Tween-80 103 % of control | [1] 102 % of control | dose: 50.0 mg/kg/injection, schedule: Q04DX002 (ip), vehicle: saline 112 % of control | dose: 100.0 mg/kg/injection, schedule: Q01DX005 (ip), vehicle: distilled water + Tween-80 100 % of control | [2] 108 % of control | dose: 200.0 mg/kg/injection, schedule: Q01DX005 (ip), vehicle: distilled water + Tween-80 96 % of control | dose: 400.0 mg/kg/injection, schedule: Q01DX005 (ip), vehicle: distilled water + Tween-80 101 % of control

Cc1c(C(=O)O)cc([N+](=O)[O-])cc1[N+](=O)[O-]
inactive: [3] 102 % of control | [4] 100 % of control | [5] 96 % of control

OC12CC3C4CC(O1)C1C4CC3C12 (centres undefined)
inactive: [6] 100 % of control | [7] 96 % of control | [8] 96 % of control

COC1=CC(=O)C=C(OC)C1=O
inactive: dose: 4.0 mg/kg/injection, schedule: Q01DX009 (ip), vehicle: saline 96 % of control | dose: 8.0 mg/kg/injection, schedule: Q01DX009 (ip), vehicle: saline 98 % of control | dose: 16.0 mg/kg/injection, schedule: Q01DX009 (ip), vehicle: saline 96 % of control

CC(C)OC(=O)Nc1ccc(Cl)cc1
inactive: [9] 97 % of control | [10] 97 % of control | [11] 100 % of control

CCCC(C)(CCC)OC(=O)Nc1cccc2ccccc12
inactive: [12] 92 % of control | [13] 92 % of control | [14] 92 % of control

O=c1cc(O)c(Cl)n[nH]1
inactive: [15] 94 % of control | [16] 94 % of control | [17] 97 % of control | dose: 200.0 mg/kg/injection, schedule: Q01DX009 (ip), vehicle: other 92 % of control | dose: 400.0 mg/kg/injection, schedule: Q01DX009 (ip), vehicle: other 88 % of control

Clc1c(Cl)c(Cl)c(Cl)c(Cl)c1Cl
inactive: [3] 97 % of control | [9] 97 % of control | [4] 100 % of control | [10] 94 % of control | [5] 103 % of control | [11] 102 % of control

CCn1c(=S)[nH]c(=O)c2n[nH]nc21
inactive: dose: 100.0 mg/kg/injection, schedule: Q01DX009 (ip), vehicle: acetone 100 % of control | dose: 200.0 mg/kg/injection, schedule: Q01DX009 (ip), vehicle: acetone 94 % of control

CC(C)(C)N1CCC1C(O)c1ccccc1 (centres undefined)
inactive: dose: 25.0 mg/kg/injection, schedule: Q04DX003 (ip), vehicle: saline with Tween-80 100 % of control | dose: 50.0 mg/kg/injection, schedule: Q04DX003 (ip), vehicle: saline with Tween-80 102 % of control | [12] 98 % of control | [9] 95 % of control

COc1ccc(-c2nc(N)nc3c2CN(CCC(=O)O)C3=O)cc1
inactive: dose: 100.0 mg/kg/injection, schedule: Q04DX003 (ip), vehicle: saline 102 % of control | [18] 100 % of control | dose: 400.0 mg/kg/injection, schedule: Q04DX003 (ip), vehicle: saline 102 % of control

C=C1CC[C@]2(C)CC[C@]3(C)C4=CC=C5C(=CC(=O)C(O)=C5C)[C@]4(C)CC[C@@]3(C)[C@@H]2C1
inactive: dose: 0.12 mg/kg/injection, schedule: Q01DX009 (ip), vehicle: saline with Tween-80 103 % of control | dose: 0.25 mg/kg/injection, schedule: Q01DX009 (ip), vehicle: saline with Tween-80 102 % of control | dose: 0.5 mg/kg/injection, schedule: Q01DX009 (ip), vehicle: saline with Tween-80 108 % of control | dose: 1.0 mg/kg/injection, schedule: Q01DX009 (ip), vehicle: saline with Tween-80 86 % of control

COc1cc(/C=N/N2C(=O)CSC2=S)ccc1OCc1ccccc1
inactive: [12] 95 % of control | [13] 91 % of control | [14] 89 % of control

O=C(O)C(O)CO.O=C(O)C(O)CO.[NH-]C1CCCCC1[NH-].[Pt+2] (centres undefined)
inactive: dose: 2.5 mg/kg/injection, schedule: Q04DX003 (ip), vehicle: other 124 % of control

Cc1cccc(OCC2=NCCN2)c1C
inactive: dose: 6.25 mg/kg/injection, schedule: Q04DX002 (ip), vehicle: saline with Tween-80 102 % of control | dose: 12.5 mg/kg/injection, schedule: Q04DX002 (ip), vehicle: saline with Tween-80 109 % of control | [19] 97 % of control

CC(F)(F)Cc1ccccc1
inactive: [12] 110 % of control | [9] 98 % of control | [13] 102 % of control | [10] 95 % of control | [14] 102 % of control | [11] 98 % of control

Nc1nc(N)nc(Cl)n1
inactive: [19] 90 % of control | dose: 50.0 mg/kg/injection, schedule: Q04DX002 (ip), vehicle: saline with Tween-80 101 % of control | dose: 100.0 mg/kg/injection, schedule: Q04DX002 (ip), vehicle: saline with Tween-80 90 % of control

CNC(=O)Oc1ccc2c(c1)OCO2
inactive: [1] 96 % of control | [2] 112 % of control | dose: 200.0 mg/kg/injection, schedule: Q01DX009 (ip), vehicle: saline 100 % of control

Nc1ccc(Cl)cc1N
inactive: [15] 96 % of control | [16] 102 % of control | dose: 75.0 mg/kg/injection, schedule: Q01DX009 (ip), vehicle: other 107 % of control | [17] 106 % of control | dose: 150.0 mg/kg/injection, schedule: Q01DX009 (ip), vehicle: other 112 % of control

CCCCCCCCCCNC(C1=C(O)c2ccccc2C(=O)C1=O)c1ccccc1 (centres undefined)
inactive: dose: 6.25 mg/kg/injection, schedule: Q01DX001 (ip), vehicle: saline with Tween-80 107 % of control | dose: 12.5 mg/kg/injection, schedule: Q01DX001 (ip), vehicle: saline with Tween-80 100 % of control | dose: 25.0 mg/kg/injection, schedule: Q01DX001 (ip), vehicle: saline with Tween-80 92 % of control

c1ccc2c(c1)Nc1ccccc1S2
inactive: [3] 92 % of control | [9] 98 % of control | [4] 92 % of control | [10] 108 % of control | [5] 89 % of control | [11] 101 % of control

COc1cc2cc3c4cc(OC)c(OC)cc4cc[n+]3c(C)c2cc1OC (tested in a mixture with another compound)
inactive: [1] 95 % of control | dose: 50.0 mg/kg/injection, schedule: Q04DX003 (ip), vehicle: saline 91 % of control | [18] 122 % of control | [11] 88 % of control

O=C(O)c1cc2ccccc2o1
inactive: [12] 94 % of control | [9] 95 % of control | [13] 98 % of control | [10] 94 % of control

CC1=CC=CNC1(N)Br (centres undefined)
inactive: [6] 100 % of control | [7] 104 % of control | [8] 100 % of control

ClCc1c2c(cc3c1CCCC3)CCCC2
inactive: [9] 105 % of control | [10] 93 % of control

N#CC1(Nc2ccccc2)CCCCC1
inactive: [16] 95 % of control | [17] 102 % of control | [9] 97 % of control | [10] 100 % of control

CC(C)c1ccc(/C=C2/CCCCC2=O)cc1
inactive: dose: 25.0 mg/kg/injection, schedule: Q01DX009 (ip), vehicle: saline with Tween-80 93 % of control | dose: 50.0 mg/kg/injection, schedule: Q01DX009 (ip), vehicle: saline with Tween-80 97 % of control | [3] 97 % of control

[Co].[NH-]CC[NH-].[NH-]CC[NH-].[NH-]CC[S-]
inactive: dose: 100.0 mg/kg/injection, schedule: Q04DX002 (ip), vehicle: saline 112 % of control | dose: 200.0 mg/kg/injection, schedule: Q04DX002 (ip), vehicle: saline 101 % of control | dose: 400.0 mg/kg/injection, schedule: Q04DX002 (ip), vehicle: saline 104 % of control
